Assay results from patent US20100015058A1, “RADIOLABELED BBN-RGD HETERODIMERS FOR CANCER TARGETING” (STANFORD UNIVERSITY, priority 2008, published 2010).

Tests used:
PC-3 tumor cells [1] = assay: Cell uptake assay on PC-3 tumor cells; format: cell-based, human; conditions: PC-3 cells
Experimental: In the cell uptake experiment, PC-3 cells were seeded into 12-well plates at a density of 5×10^5 cells per well for overnight incubation. Cells were rinsed 3 times with phosphate-buffered saline (PBS), followed by the addition of ^18F-FB-RGD, ^18F-FB-BBN, or ^18F-BBN-RGD to the cultured wells in triplicate (about 2 μCi/well). […] The cell lysate was collected in measurement tubes for counting. The cell uptake was normalized in terms of added radioactivity.
(§1) The cell uptake studies were performed as we have previously described with some modifications (Chen et al., Mol Imaging Biol. (2004) […]; Cai et al., (2006) J. Nuc. Med. 47: 1172-1180, incorporated herein by reference in their entireties). Briefly, PC-3 cells were seeded into 12-well plates at a density of 5×10^5 cells per well and incubated (about 18 kBq/well) with ^68Ga-labeled tracers at 37° C. for 15, 30, 60, and 120 min. Tumor cells were then washed three times with chilled PBS and harvested by trypsinization with 0.25% trypsin/0.02% EDTA (Invitrogen). The cell suspensions were collected and measured in a y counter (Packard, Meriden, Conn.). The cell uptake was expressed as the percent added dose (% AD) after decay correction. Experiments were performed twice with triplicate wells. For efflux studies, ^68Ga-labeled tracers (about 18 kBq/well) were first incubated with PC-3 cells in 12-well plates for 1 h at 37° C. to allow internalization. Then cells were washed twice with PBS, and incubated with cell culture medium for 15, 30, and 60 min. After washing three times with PBS, cells were harvested by trypsinization with 0.25% trypsin/0.02% EDTA. The cell suspensions were collected and measured in a γ counter. Experiments were performed twice with triplicate wells. Data are expressed as percent added dose after decay correction.

in vivo [2] = conditions: mouse, in vivo, iv, total radioactivity
Experimental: (a) PET scans and image analysis were performed using a micro-PET R4 rodent model scanner (Siemens Medical Solutions) as reported by Li et al., J. Nucl. Med. (2007) 48: 1162-1171 and Wu et al., J Nucl. Med. (2005) 46: 1707-1718, both of which are incorporated herein by reference in their entireties). […] Five-minute static PET images were then acquired at 0.5, 1, and 2 h after injection. The images were reconstructed by a 2-dimensional ordered-subsets expectation maximum (OSEM) algorithm. No attenuation or scatter correction was applied. […] The 5-min static PET scans were then acquired at 1 hr after injection. For each small-animal PET scan, regions of interest (ROIs) were drawn over the tumor, normal tissue, and major organs by using vendor software (ASI Pro 5.2.4.0) on decay-corrected whole-body coronal images. The average radioactivity concentration (accumulation) within a tumor or an organ was obtained from mean pixel values within the multiple ROI volume, which were converted to counts/mL/min using a conversion factor. Assuming a tissue density of 1 g/mL, the ROIs were converted to counts/g/min, and then divided by the administered activity to obtain an imaging ROI-derived percentage injected dose per gram of tissue (% ID/g).
For dynamic PET, 30-min scans (1×30 s, 4×1 min, 1×1.5 min, 4×2 min, 5×3 min; total 15 frames) were started 1 min after injection, and two 5-min static PET images were also acquired at 1 h and 2 h after injection. […] For each small-animal PET scan, regions of interest (ROIs) were drawn over the tumor, normal tissue, and major organs using vendor software ASI Pro 5.2.4.0 on decay-corrected whole-body coronal images. The maximum radioactivity concentrations (accumulation) within a tumor or an organ were obtained from mean pixel values within the multiple ROI volume, and were converted to megabecquerels per milliliter per minute using a conversion factor. These values were then divided by the administered activity to obtain (assuming a tissue density of 1 g/ml) an image ROI-derived percent injected dose per gram (% ID/g).
The images were reconstructed using a 2-dimensional ordered-subsets expectation maximum algorithm without attenuation or scatter correction.
For each small-animal PET scan, regions of interest were drawn over each tumor, over normal tissue, and over major organs using vendor software (ASI Pro, version 5.2.4.0) on decay-corrected whole-body coronal images. The maximum radioactivity concentration (accumulation) within a tumor or an organ was obtained from the mean pixel values within the multiple-region-of-interest volume, which were converted to MBq/mL/min using a conversion factor. Assuming a tissue density of 1 g/mL, the regions of interest were converted to MBq/g/min and then divided by the administered activity to obtain an imaging region-of-interest-derived percentage injected dose (% ID)/g.

in vivo [3] = assay: in vivo; design: species or system mice; conditions: female, BALB/c, mouse, iv, 3.7 MBq, total radioactivity
Experimental: The 4T1 murine breast cancer cell line was purchased from American Type Culture Collection and grown in RMPI 1640 medium (Invitrogen Corp.) supplemented with 10% (v/v) fetal bovine serum (Invitrogen) at 37° C. with 5% CO2. The 4T1 tumor model was generated by subcutaneous injection of 5×10^6 tumor cells into the left front flank of female normal BALB/c mice (Harlan).
Five-minute static PET images were then acquired at 2 h after injection (n=3/group).

PC-3 tumor cells [4] = format: cell-based, human; conditions: PC-3 cells, 60 min efflux, FIG. 14D
Experimental: In the cell efflux experiment, PC-3 cells were seeded into 12-well plates at a density of 5×10^5 cells per well for overnight incubation. Cells were rinsed 3 times with PBS and then the appropriate ^18F-labeled peptide tracer was added. The cells were incubated at 37° C. for 2 hr, washed with PBS, and then reincubated with serum-free medium. The cells were washed at different time points (0, 15, 30, 60, 120, 180 min) with PBS and lysed with NaOH-SDS (0.2 M NaOH, 1% SDS). The cell lysate was collected in measurement tubes for counting. Efflux values at different time points were calculated by subtracting retention from 0-min retention, and normalized by dividing the total counts at 0 min.
as §1

[5] = Small-animal PET of MDA-MB-435 tumor-bearing mice; conditions: female, athymic nude, mouse, in vivo, iv, 3.7 MBq, total radioactivity, MDA-MB435 tumor uptake
Experimental: The MDA-MB435 tumor model was established by orthotopic injections of 5×10^6 cells into the right mammary fat pad of female athymic nude mice. […] The mice were subjected to microPET studies when the tumor volume reached 100-300 mm^3 (2-3 weeks for MDA-MB-435, and 4-5 wk for T47D).
For static PET, 5-min scans were acquired at 30 min, 1 h, and 2 h after injection. For dynamic PET, 30-min scans (1×30 s, 4×1 min, 1×1.5 min, 4×2 min, 5×3 min; total 15 frames) were started 1 min after injection, and two 5-min static PET images were also acquired at 1 h and 2 h after injection. The images were reconstructed using a two-dimensional ordered subsets expectation maximum (OSEM) algorithm and no correction was applied for attenuation or scatter. […] For each small-animal PET scan, regions of interest (ROIs) were drawn over the tumor, normal tissue, and major organs using vendor software ASI Pro 5.2.4.0 on decay-corrected whole-body coronal images. The maximum radioactivity concentrations (accumulation) within a tumor or an organ were obtained from mean pixel values within the multiple ROI volume, and were converted to megabecquerels per milliliter per minute using a conversion factor. These values were then divided by the administered activity to obtain (assuming a tissue density of 1 g/ml) an image ROI-derived percent injected dose per gram (% ID/g).
Quantification of tumor and major organ activity accumulation in the microPET scans was realized by measuring the regions of interest (ROIs) that encompassing the entire organ on the coronal images.

DU-145 tumor = format: in vivo, mice; conditions: integrin αvβ3-positive, low GRPR-expressing tumor
Experimental: The PC-3 and DU-145 human prostate carcinoma cell lines were purchased from American Type Culture Collection. PC-3 cells were grown in F-12K nutrient mixture (Kaighn's modification) (Invitrogen Corp.), and DU-145 cells were grown in minimum essential medium (Eagle) mixture supplemented with 10% (v/v) fetal bovine serum (Invitrogen) at 37° C. with 5% CO2. The PC-3 and DU-145 tumor models were generated by subcutaneous injection of 5×10^6 tumor cells into the front flank of male athymic nude mice (Harlan).
No attenuation or scatter correction was applied.

[6] = male, athymic nude, 5.5 MBq, Blood uptake
[7] = male, athymic nude, 5.5 MBq, Tumor uptake

Compound | tissue uptake at 0.5 h (in vivo [2]; [7]) [%ID/g] | tissue uptake at 1 h (in vivo [2]; [7]) [%ID/g] | tissue uptake at 4 h (in vivo [2]; [7]) [%ID/g] | tissue uptake at 20 h (in vivo [2]; [7]) [%ID/g] | tissue uptake at 1 h (in vivo [2]; 5.5 MBq, Blood uptake) [%ID/g] | tissue uptake at 4 h (in vivo [2]; 5.5 MBq, Blood uptake) [%ID/g] | tissue uptake at 20 h (in vivo [2]; 5.5 MBq, Blood uptake) [%ID/g] | tissue uptake at 0.5 h (in vivo [2]; 5.5 MBq, Kidney uptake) [%ID/g] | tissue uptake at 1 h (in vivo [2]; 5.5 MBq, Kidney uptake) [%ID/g] | tissue uptake at 4 h (in vivo [2]; 5.5 MBq, Kidney uptake) [%ID/g] | tissue uptake at 20 h (in vivo [2]; 5.5 MBq, Kidney uptake) [%ID/g] | tissue uptake at 0.5 h (in vivo [2]; 5.5 MBq, Liver uptake) [%ID/g] | tissue uptake at 1 h (in vivo [2]; 5.5 MBq, Liver uptake) [%ID/g] | tissue uptake at 4 h (in vivo [2]; 5.5 MBq, Liver uptake) [%ID/g] | tissue uptake at 20 h (in vivo [2]; 5.5 MBq, Liver uptake) [%ID/g] | other results
CSCC[C@H](NC(=O)[C@H](CC(C)C)NC(=O)[C@H](Cc1c[nH]cn1)NC(=O)CNC(=O)[C@@H](NC(=O)[C@H](C)NC(=O)[C@H](Cc1c[nH]c2ccccc12)NC(=O)[C@H](CCC(N)=O)NC(=O)CCCCCNC(=O)CC[C@H](NC(=O)CN1CCN(CC(=O)O)CCN(CC(=O)O)CCN(CC(=O)O)CC1)C(=O)NCCCC[C@@H]1NC(=O)[C@@H](Cc2ccc(O)cc2)NC(=O)[C@H](CC(=O)O)NC(=O)CNC(=O)[C@H](CCCNC(=N)N)NC1=O)C(C)C)C(N)=O [^64Cu-DOTA-RGD-BBN, metal not drawn] | 3.05 ± 0.56 | 1.87 ± 0.41 | 1.05 ± 0.49 | 0.97 ± 0.24 | 0.69 ± 0.24 | 0.45 ± 0.2 | 0.31 ± 0.13 | 5.99 ± 1.61 | 3.4 ± 1.25 | 2.51 ± 0.47 | 1.64 ± 0.34 | 3.4 ± 1.42 | 3.05 ± 1.07 | 2.33 ± 0.88 | 1.74 ± 0.9 | cell uptake value (PC-3 tumor cells [1]; 120 min): 3.70 % added dose; tissue uptake at 0.5 h (in vivo [2]; [6]): 1.15 ± 0.49 %ID/g
CSCC[C@H](NC(=O)[C@H](CC(C)C)NC(=O)[C@H](Cc1c[nH]cn1)NC(=O)CNC(=O)[C@@H](NC(=O)[C@H](C)NC(=O)[C@H](Cc1c[nH]c2ccccc12)NC(=O)[C@H](CCC(N)=O)NC(=O)CCCCCNC(=S)Nc1ccc(C[C@H]2CN(CC(=O)O)CCN(CC(=O)O)CCN2CC(=O)O)cc1)C(C)C)C(N)=O [^64Cu-NOTA-BBN, metal not drawn, reference compound] | 2.28 ± 0.35 | 1.25 ± 1.03 | 0.56 ± 0.4 | 0.44 ± 0.39 | 0.23 ± 0.11 | 0.19 ± 0.1 | 0.15 ± 0.05 | 3.55 ± 1.17 | 1.5 ± 0.39 | 0.76 ± 0.45 | 0.5 ± 0.44 | 10.4 ± 2.27 | 8.85 ± 1.61 | 6.35 ± 0.57 | 4.2 ± 0.53 | tissue uptake at 2 h (in vivo [3]): 0.33 ± 0.18 %ID/g; tissue uptake at 0.5 h (in vivo [2]; [6]): < 1 %ID/g; tissue uptake at 24 h (in vivo [2]; [7]): 0.44 ± 0.39 %ID/g
N=C(N)NCCC[C@@H]1NC(=O)[C@H](CCCCNC(=S)Nc2ccc(C[C@H]3CN(CC(=O)O)CCN(CC(=O)O)CCN3CC(=O)O)cc2)NC(=O)[C@@H](Cc2ccc(O)cc2)NC(=O)[C@H](CC(=O)O)NC(=O)CNC1=O [^64Cu-NOTA-RGD, metal not drawn, reference compound] | 1.01 ± 0.29 | 0.83 ± 0.24 | 0.66 ± 0.21 | 0.55 ± 0.32 | 0.43 ± 0.32 | 0.3 ± 0.11 | 0.34 ± 0.18 | 3.37 ± 0.89 | 2.13 ± 0.85 | 1.43 ± 0.68 | 0.98 ± 0.48 | 2.86 ± 1.06 | 2.68 ± 1.15 | 2.15 ± 0.79 | 1.67 ± 0.69 | tissue uptake at 2 h (in vivo [3]): 0.65 ± 0.07 %ID/g
CSCC[C@H](NC(=O)[C@H](CC(C)C)NC(=O)[C@H](Cc1c[nH]cn1)NC(=O)CNC(=O)[C@@H](NC(=O)[C@H](C)NC(=O)[C@H](Cc1c[nH]c2ccccc12)NC(=O)[C@H](CCC(N)=O)NC(=O)CCCCCNC(=S)Nc1ccc(C[C@H]2CN(CC(=O)O)CCN(CC(=O)O)CCN2CC(=O)O)cc1)C(C)C)C(N)=O [^68Ga-NOTA-BBN, metal not drawn, reference compound] | – | – | – | – | – | – | – | – | – | – | – | – | – | – | – | cell-associated tracer (cell retention) (PC-3 tumor cells [4]): 6.70±1.00 % AD; tissue uptake at 1 h [5]: 0.38 ± 0.5 %ID/g; tissue uptake at 0.5 h (in vivo [2]; male, athymic nude, 3.7 MBq, liver uptake (highest)): 2 %ID/g
N=C(N)NCCC[C@@H]1NC(=O)[C@H](CCCCNC(=S)Nc2ccc(C[C@H]3CN(CC(=O)O)CCN(CC(=O)O)CCN3CC(=O)O)cc2)NC(=O)[C@@H](Cc2ccc(O)cc2)NC(=O)[C@H](CC(=O)O)NC(=O)CNC1=O [^68Ga-NOTA-RGD, metal not drawn, reference compound] | – | – | – | – | – | – | – | – | – | – | – | – | – | – | – | tissue uptake at 1 h [5]: 1.63 ± 0.59 %ID/g
^18F-FB-BBN-RGD: ^18F-fluorobenzoate-labeled heterodimer of BBN(7-14) and c(RGDyK) joined through a glutamate linker | – | – | – | – | – | – | – | – | – | – | – | – | – | – | – | detection of the DU-145 tumor by PET (DU-145 tumor): able to visualize this tumor model
^18F-FB-RGD: ^18F-fluorobenzoate-labeled monomeric RGD peptide c(RGDyK) [reference compound] | – | – | – | – | – | – | – | – | – | – | – | – | – | – | – | detection of the DU-145 tumor by PET (DU-145 tumor): able to visualize this tumor model; cell uptake (PC-3 tumor cells [1]; 37° C., normalized to added radioactivity): < 0.5%
